Measured values as given in patent US12570607B2, “Compound as cyclin-dependent kinase 9 inhibitor and use thereof” (CSPC Zhongqi Pharmaceutical Technology (Shijiazhuang) Co., …, priority 2019, dated 2026).

How the values were obtained:
[1] = tested on: human acute myelocytic leukemia MV4;11 cell subcutaneous xenograft tumor; assay: In vivo antitumor activity in MV4;11 cell subcutaneous xenograft tumor model; design: species or system NOD-SCID mice; conditions: MV4;11 xenograft, p.o.
Protocol: Cell culture: IMDM culture medium containing 10% fetal bovine serum (FBS), 37° C., 5% CO2.
(§1) NOD-SCID mice, female, 6-8 weeks(18-22 g), each mouse was subcutaneously inoculated with 0.1 mL (1×10^8) MV4;11 cells on the right back of each mouse. When the average tumor volume reached 150 mm^3, drug administration was started. The tumor volume was measured twice a week, and the volume was calculated in cubic millimeters. When the average tumor volume in the vehicle group reached more than 800 mm^3, the administration was terminated to compare the difference in the average tumor volume between the compound groups and the vehicle group. The antitumor efficacy of the compounds was evaluated by TGI (%). TGI (%) reflected the tumor growth inhibition rate.

MV4;11 cells = assay: In vitro MV4;11 cell proliferation inhibition (MTT method); type: cell-based; conditions: Homo sapiens
Description: The in vitro inhibitory effect of the synthesized compounds on cell proliferation was investigated.
The trade name of MTT was thiazole blue, which was a tetrazolium salt of a dye that could accept hydrogen atoms. […] Dimethyl sulfoxide could dissolve blue-purple complexes in cells, and its light absorption value could be measured at 490-550 nm wavelength with an enzyme-linked immunosorbent detector, which could indirectly reflect the number of cells. Within a certain range of the cell number, the amount of MTT crystals formed was proportional to the number of cells. The drug to be tested was successively diluted to different concentrations and added to a 96-well plate. The OD value was determined after the drug acted for a certain time. The size of the OD value could reflect the number of living cells, and its IC50 value was calculated with SPSS19.0.
Suspension of cells: Cells were […] by centrifugation and counted. A certain density of cell suspension was formulated with a complete culture medium, blown evenly, inoculated on a 96-well plate, 100 μL per well, and then cultured in a CO2 incubator.
An appropriate amount of the drug was added to a calculated amount of DMSO and dissolved. The resulting mixture was dispensed and stored at −20° C. The formulation concentration was 10 mM.
The stock solution of the compound having a concentration of 10 mM was diluted into different concentrations (8 concentrations) of solutions of the compound in DMSO (3-fold dilution, 20×final concentration). Each concentration of solutions (10 μL) of the compound in DMSO was respectively diluted with cell culture media (90 μL) to formulate working solutions (2×final concentration). Each concentration of working solutions (100 μL) of the compound was added to the 96-well plate inoculated with cells (1×final concentration, the highest final concentration is 1000 nM). The resulting plate continued to be cultured in a CO2 incubator.
The 96-well plate was taken out, and the density of cells was observed under a microscope. The test was performed with the MTT method.
MTT method: 20 μL of MTT was added to each well; the plate was cultured for about 4 hours in the incubator; the liquid in the well was discarded; 150 μL of DMSO was added into each well; the plate was placed in a shaker and shaken for 5-10 minutes, and the test was performed with a microplate reader at a wavelength of 550 nm. 7. Data analysis: IC50 value of the drug was calculated with SPSS19.0 statistical software.

[2] = tested on: human acute promyelocytic leukemia HL-60 cell subcutaneous xenograft tumor; assay: In vivo antitumor activity in HL-60 cell subcutaneous xenograft tumor model; design: species or system Nu/Nu mice; conditions: HL-60 xenograft, qd, p.o., 5 mg/Kg, 9 days
Protocol: as §1, with “Cell culture: IMDM culture medium containing 20% fetal bovine serum (FBS), 37° C., 5% CO2; Nu/Nu” for “NOD-SCID”, “weeks (18-22” for “weeks(18-22”, “of HL-60 cell suspension (containing about 1×10^7 cells) in the axillary region of” for “(1×10^8) MV4;11 cells on”, “forelimb.” for “back of each mouse.”, “2-3 times per” for “twice a”, “group” for “groups”

hERG channel = hERG channel (Homo sapiens (Human), UniProt Q12809); assay: In vitro hERG inhibitory activity, whole-cell patch-clamp on CHO-K1 cell line stably expressing the hERG channel
Chain of hERG channel (Q12809 whole entry): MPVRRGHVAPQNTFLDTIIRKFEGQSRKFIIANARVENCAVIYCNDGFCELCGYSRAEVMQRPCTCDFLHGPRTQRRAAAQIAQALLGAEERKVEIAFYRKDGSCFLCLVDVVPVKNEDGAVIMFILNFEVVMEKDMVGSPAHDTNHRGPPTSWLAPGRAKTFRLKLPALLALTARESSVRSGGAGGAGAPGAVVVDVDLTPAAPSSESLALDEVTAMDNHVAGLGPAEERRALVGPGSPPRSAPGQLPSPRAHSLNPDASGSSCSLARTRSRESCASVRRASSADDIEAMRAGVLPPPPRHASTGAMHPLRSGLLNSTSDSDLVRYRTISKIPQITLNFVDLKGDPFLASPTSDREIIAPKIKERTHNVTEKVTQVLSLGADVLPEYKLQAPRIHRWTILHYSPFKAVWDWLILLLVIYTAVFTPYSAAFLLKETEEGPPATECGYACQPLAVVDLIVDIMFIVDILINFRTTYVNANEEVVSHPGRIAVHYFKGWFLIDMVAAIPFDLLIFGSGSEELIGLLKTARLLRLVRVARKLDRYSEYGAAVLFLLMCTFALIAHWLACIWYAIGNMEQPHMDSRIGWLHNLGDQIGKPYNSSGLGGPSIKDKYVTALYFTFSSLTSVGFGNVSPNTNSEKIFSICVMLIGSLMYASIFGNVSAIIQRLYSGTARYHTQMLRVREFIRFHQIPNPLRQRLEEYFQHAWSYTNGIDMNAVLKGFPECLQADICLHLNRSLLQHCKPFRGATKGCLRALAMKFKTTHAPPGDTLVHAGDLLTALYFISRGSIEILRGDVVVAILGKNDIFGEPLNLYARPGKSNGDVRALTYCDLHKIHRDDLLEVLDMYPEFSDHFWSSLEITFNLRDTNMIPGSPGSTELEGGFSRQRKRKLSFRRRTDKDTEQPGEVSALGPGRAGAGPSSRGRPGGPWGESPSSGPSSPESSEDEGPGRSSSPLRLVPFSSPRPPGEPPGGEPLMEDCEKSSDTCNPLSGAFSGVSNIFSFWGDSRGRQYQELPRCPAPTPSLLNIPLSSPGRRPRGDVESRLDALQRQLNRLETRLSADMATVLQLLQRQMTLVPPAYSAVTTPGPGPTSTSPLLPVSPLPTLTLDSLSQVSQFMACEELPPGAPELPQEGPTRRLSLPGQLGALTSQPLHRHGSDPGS
Description: Rapid delayed rectifier current (IKr) was mainly mediated by the hERG ion channel and involved in human cardiomyocyte repolarization. Inhibition of IKr was the leading cause of the clinical QT interval prolongation syndrome, even acute cardiac dysrhythmia, and even sudden death. By utilizing a whole-cell patch-clamp technology, the blocking effect of a compound on the hERG channel was detected on a CHO-K1 cell line stably expressing the hERG channel, and the half inhibition concentration IC50 of the compound was determined. It was used as a part of the comprehensive cardiac safety assessment, and it was initially evaluated in the safety in vitro screen for cardiotoxicity.
This assay included the following aspects: • The hERG current was recorded on the CHO-K1 cell line stably expressing the hERG channel by utilizing the manual patch-clamp technology; • The inhibition rate at each concentration was calculated according to the hERG tail current; • The measurement was performed at 5 concentrations for each compound to calculate the IC50 value; • 3 cells were tested at each concentration; • One positive control drug was provided.
The hERG current was recorded by utilizing a whole-cell patch-clamp technology. The cell suspension was added to a dish, and the dish was placed on the object stage of an upright microscope. After adhesion of the cells, perfusion was performed with an extracellular fluid at a flow rate of […]. A glass microelectrode was pulled with a microelectrode puller via a two-step process and the pipette rip resistance was between 2-5 MΩ. After the whole-cell record was set up, the clamp potential was held at −80 mV. The cells were depolarized to +60 mV by applying a voltage stimulus and then repolarized to −50 mV to elicit the hERG tail current. All recordation was conducted after the current became stable. The extracellular perfusion administration was started from the lowest concentration, staying for 5-10 min at each concentration until the current was stable, and then conducted with the next concentration.

Compound | IC50 (MV4;11 cells) | TGI(%) ([1]; qd, 5 mg/Kg, 7 days) | TGI(%) [2] | IC50 (hERG channel) | TGI(%) ([1]; qd, 5 mg/Kg, 16 days) | TGI(%) ([1]; qd, 5 mg/Kg, 9 days) | TGI(%) ([1]; q2d, 20 mg/Kg, 9 days)
COc1cc(F)c(F)cc1-c1cc(NC(=O)[C@H]2CCC[C@@H](NC(=O)CO)C2)ncc1F [Compound 68] | 50 nM | 78.1% | 90.2% | > 30000 nM | – | – | –
COc1cc(F)ccc1-c1cc(NC(=O)[C@H]2CCC[C@@H](NC(=O)C3(C#N)CC3)C2)ncc1F [Compound 33] | 17 nM | – | – | > 30000 nM | – | 56.9% | –
COc1cc(F)c(F)cc1-c1cc(NC(=O)[C@H]2CCC[C@@H](NC(=O)C3(C#N)CC3)C2)ncc1F [Compound 67] | 67 nM | – | 67.8% | – | – | 67.8% | –
COc1cc(F)ccc1-c1ccnc(NC(=O)[C@H]2CCC[C@@H](NC(C)=O)C2)c1 | – | – | – | – | – | – | 51.5%

The next lines start with results.

IC50 (MV4;11 cells) | Compound | TGI(%) ([1]; qd, 5 mg/Kg, 7 days) | TGI(%) [2] | IC50 (hERG channel) | TGI(%) ([1]; qd, 5 mg/Kg, 16 days) | TGI(%) ([1]; qd, 5 mg/Kg, 9 days) | TGI(%) ([1]; q2d, 20 mg/Kg, 9 days)
34 nM | COc1cc(F)ccc1-c1cc(NC(=O)[C@H]2CCC[C@@H](NC(=O)CO)C2)ncc1F [Compound 45] | – | 58.0% | > 30000 nM | 62.9% | – | –
37 nM | COc1cc(F)ccc1-c1cc(NC(=O)[C@H]2CCC[C@@H](NC(C)=O)C2)ncc1F [Compound 5] | – | – | > 30000 nM | – | – | 98.5%
